# From ChEMBL document CHEMBL4138100, “Novel anti-inflammatory agents targeting CXCR4: Design, synthesis, biological evaluation and preliminary pharmacokinetic study” (Eur J Med Chem, 2017)
# Calls of active or inactive are those of the source. The rule behind the calls is not given here.
# Columns and labels:
# [1] = target: C-X-C chemokine receptor type 4 (Homo sapiens) (UniProt P61073); experiment: Inhibition of biotinylated TN14003 binding to CXCR4 in human MDA-MB-231 cells assessed as reduction in fluorescence preincubated for 10 mins followed by biotinylated-TN14003 addition measured after 30 mins by streptavidin-rhodamine staining based immunofluorescence microscopic analysis; type: cell-based
# C-X-C chemokine receptor type 4 (Homo sapiens), sequence (P61073 whole entry): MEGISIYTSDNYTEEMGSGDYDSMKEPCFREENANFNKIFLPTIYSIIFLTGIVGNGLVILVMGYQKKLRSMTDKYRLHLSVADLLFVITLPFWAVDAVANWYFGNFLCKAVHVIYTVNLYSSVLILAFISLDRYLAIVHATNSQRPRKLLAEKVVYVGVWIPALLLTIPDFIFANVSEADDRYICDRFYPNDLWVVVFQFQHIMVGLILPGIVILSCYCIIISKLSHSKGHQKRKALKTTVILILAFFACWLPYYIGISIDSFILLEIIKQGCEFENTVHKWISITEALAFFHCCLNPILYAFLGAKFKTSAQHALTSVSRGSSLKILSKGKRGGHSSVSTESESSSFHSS
# [2] = target: C-X-C chemokine receptor type 4 (Homo sapiens) (UniProt P61073); experiment: Inhibition of CXCR4-mediated chemotaxis in human MDA-MB-231 cells assessed as inhibition of CXCL12alpha-induced cell invasion at 100 nM after 22 hrs by hematoxylin/eosin dye-based matrigel assay relative to control; type: functional
# [3] = target: C-X-C chemokine receptor type 4 (Homo sapiens) (UniProt P61073); experiment: Potency index, ratio of AMD3100 EC to compound EC for inhibition of biotinylated TN14003 binding to CXCR4 in human MDA-MB-231 cells; type: functional, cell-based
# Mus musculus [4] = experiment: Antiinflammatory activity in mouse assessed as inhibition of xylene-induced ear edema at 10 mg/kg, ip treated post 30 mins xylene treatment measured at 2 hrs post dose relative to control; type: functional
# Mus musculus [5] = experiment: Antiinflammatory activity in mouse assessed as inhibition of xylene-induced increase in number of inflammatory cells in ear at 10 mg/kg, ip treated post 30 mins xylene treatment measured at 2 hrs post last dose by histological analysis; type: functional, organism-based
# Mus musculus [6] = experiment: Antiinflammatory activity in mouse assessed as inhibition of xylene-induced ear edema volume at 10 mg/kg, ip treated post 30 mins xylene treatment measured at 2 hrs post dose by histological analysis; type: functional, organism-based
# [7] = target: C-X-C chemokine receptor type 4 (Homo sapiens) (UniProt P61073); experiment: Inhibition of CXCR4 in human MDA-MB-231 cells assessed as reduction in CXCR4/[…] signaling-mediated Akt Ser473 phosphorylation by Western blot analysis; type: functional, cell-based
# MDA-MB-231 = experiment: Cytotoxicity against human MDA-MB-231 cells assessed as inhibition of cell proliferation at 10 uM after 24 to 72 hrs by MTT assay; type: cell-based; settings: mda-mb-231, 10 µM
# MCF-10A = experiment: Antiproliferative activity in human MCF10A cells at 10 uM after 24 to 72 hrs by MTT assay; type: cell-based
# Mus musculus [8] = experiment: Antiinflammatory activity in mouse assessed as inhibition of xylene-induced ear thickness at 10 mg/kg, ip treated post 30 mins xylene treatment measured at 2 hrs post dose by histological analysis; type: functional, organism-based
# [9] = Stability in nude mouse plasma assessed as parent compound remaining at 30 mg/kg, iv after 5 mins by HPLC analysis; type: ADME, organism-based; settings: read-out: Stability
# [10] = Stability in nude mouse plasma assessed as parent compound remaining at 30 mg/kg, iv after 20 mins by HPLC analysis; type: ADME, organism-based; settings: read-out: Stability
# [11] = Stability in nude mouse plasma assessed as parent compound remaining at 30 mg/kg, iv after 50 mins by HPLC analysis; type: ADME, organism-based; settings: read-out: Stability
# [12] = Half life in nude mouse plasma at 30 mg/kg, iv by HPLC analysis; type: ADME, organism-based
# [13] = Stability in nude mouse plasma assessed as parent compound remaining at 30 mg/kg, iv after 1 hr by HPLC analysis; type: ADME, organism-based; settings: in vivo
# CXCR4 [14] = experiment: Selectivity index, ratio of antiproliferative activity in human MDA-MB-231 cells to EC for inhibition of biotinylated TN14003 binding to CXCR4 in human MDA-MB-231 cells; type: toxicity, cell-based; settings: probe biotinylated TN14003, read-out: Selectivity Index
# CXCR4 [15] = experiment: Selectivity index, ratio of antiproliferative activity in human MCF10A cells to EC for inhibition of biotinylated TN14003 binding to CXCR4 in human MDA-MB-231 cells; type: toxicity, cell-based; settings: probe biotinylated TN14003, read-out: Selectivity Index
EC [1] [nM],SMILES,inhibition [2] [%],other results
100,Cc1ccc(S(=O)(=O)NCc2ccc(CNC(=O)c3ccccc3C)cc2)cc1,< 50,–
100,Cc1ccc(C(=O)NCc2ccc(CNS(=O)(=O)c3ccccc3)cc2)cc1,< 50,–
1,Cc1ccc(S(=O)(=O)NCc2ccc(CNC(=O)c3cccc(F)c3)cc2)cc1,55,Ratio [3]: 1000
100,O=C(NCc1ccc(CNS(=O)(=O)c2ccccc2)cc1)c1ccc(F)cc1,> 60,inhibition in vivo at 10 mg/kg (Mus musculus [4]): 40%
10,O=C(NCc1ccc(CNS(=O)(=O)c2ccccc2)cc1)c1ccccc1Cl,> 60,inhibition (Mus musculus [4]): inactive
100,O=C(NCc1ccc(CNS(=O)(=O)c2ccccc2)cc1)c1ccc([N+](=O)[O-])cc1,55,–
1000,O=C(NCc1ccc(CNS(=O)(=O)c2ccccc2)cc1)c1ccccc1F,–,–
100,O=C(NCc1ccc(CNS(=O)(=O)c2ccccc2)cc1)c1ccc(Cl)cc1,< 50,–
1000,Cc1cccc(C(=O)NCc2ccc(CNS(=O)(=O)c3ccccc3)cc2)c1,–,–
100,Cc1ccc(S(=O)(=O)NCc2ccc(CNC(=O)c3cccc(Cl)c3)cc2)cc1,> 60,inhibition in vivo at 10 mg/kg (Mus musculus [4]): 57%
10,Cc1ccc(S(=O)(=O)NCc2ccc(CNC(=O)c3c(Cl)cc(Cl)cc3Cl)cc2)cc1,55,–
1000,Cc1ccc(S(=O)(=O)NCc2ccc(CNC(=O)c3cccc(C)c3)cc2)cc1,–,–
1000,O=C(NCc1ccc(CNS(=O)(=O)c2ccccc2)cc1)c1cccc(Cl)c1,–,–
> 1000,Cc1ccc(S(=O)(=O)NCc2ccc(CNC(=O)c3ccccc3)cc2)cc1,–,–
1,Cc1ccccc1C(=O)NCc1ccc(CNS(=O)(=O)c2ccccc2)cc1,> 90,Ratio [3]: 1000; inhibition (Mus musculus [4]): inactive
10,Cc1ccc(S(=O)(=O)NCc2ccc(CNC(=O)c3ccncc3)cc2)cc1,55,–
> 1000,COc1cccc(C(=O)NCc2ccc(CNS(=O)(=O)c3ccccc3)cc2)c1,–,–

EC [1] [nM],SMILES,inhibition [2] [%],other results
1,O=C(NCc1ccc(CNS(=O)(=O)c2ccccc2)cc1)c1ccccc1,> 60,Ratio [3]: 1000; inhibition in vivo at 10 mg/kg (Mus musculus [4]): 62%
100,COc1ccc(C(=O)NCc2ccc(CNS(=O)(=O)c3ccc(C)cc3)cc2)cc1,55,–
> 1000,Cc1ccc(S(=O)(=O)NCc2ccc(CNC(=O)c3cccnc3)cc2)cc1,–,–
1,COc1ccccc1C(=O)NCc1ccc(CNS(=O)(=O)c2ccccc2)cc1,> 90,Ratio [3]: 1000; inhibition (Mus musculus [4]): inactive
1000,Cc1ccc(S(=O)(=O)NCc2ccc(CNC(=O)c3ccccc3F)cc2)cc1,–,–
1000,COc1ccc(C(=O)NCc2ccc(CNS(=O)(=O)c3ccccc3)cc2)cc1,–,–
100,COc1ccccc1C(=O)NCc1ccc(CNS(=O)(=O)c2ccc(C)cc2)cc1,> 90,inhibition (Mus musculus [4]): inactive
10,COc1cccc(C(=O)NCc2ccc(CNS(=O)(=O)c3ccc(C)cc3)cc2)c1,> 90,inhibition in vivo at 10 mg/kg (Mus musculus [4]): 28%
10,Cc1ccc(S(=O)(=O)NCc2ccc(CNC(=O)c3ccccc3Cl)cc2)cc1,> 90,inhibition in vivo at 10 mg/kg (Mus musculus [4]): 26%
10,O=C(NCc1ccc(CNS(=O)(=O)c2ccccc2)cc1)c1c(Cl)cc(Cl)cc1Cl,> 60,inhibition (Mus musculus [4]): inactive
10,O=C(NCc1ccc(CNS(=O)(=O)c2ccccc2)cc1)c1cccnc1,> 60,inhibition in vivo at 10 mg/kg (Mus musculus [4]): 53%
1000,Cc1ccc(C(=O)NCc2ccc(CNS(=O)(=O)c3ccc(C)cc3)cc2)cc1,–,–
10,Cc1ccc(S(=O)(=O)NCc2ccc(CNC(=O)c3ccc([N+](=O)[O-])cc3)cc2)cc1,55,–
1,Cc1ccc(S(=O)(=O)NCc2ccc(CNC(=O)c3ccc(F)cc3)cc2)cc1,> 60,inhibition (Mus musculus [5]): Active; inhibition (Mus musculus [6]): Active; inhibition [7]: Dose-dependent effect; Activity (MDA-MB-231): Non-Toxic; Activity (MCF-10A): Non-Toxic; inhibition in vivo at 10 mg/kg (Mus musculus [4]): 75%; inhibition (Mus musculus [8]): Active; remaining at 5 min [9]: 100%; remaining at 20 min [10]: 65%; remaining at 50 min [11]: 45%; half-life [12]: 40 min; Stability [13]: Stable; selectivity ratio (CXCR4 [14]): 1000; selectivity ratio (CXCR4 [15]): 1000
100,O=C(NCc1ccc(CNS(=O)(=O)c2ccccc2)cc1)c1cccc(F)c1,> 60,–
10,Cc1ccc(S(=O)(=O)NCc2ccc(CNC(=O)c3ccc(Cl)cc3)cc2)cc1,> 60,inhibition in vivo at 10 mg/kg (Mus musculus [4]): 50%
10,O=C(NCc1ccc(CNS(=O)(=O)c2ccccc2)cc1)c1ccncc1,> 60,inhibition in vivo at 10 mg/kg (Mus musculus [4]): 40%
